The numbers were not newly measured in US20190177279A1, “CARBOXYLIC ACID AROMATIC 1,2-CYCLOPROPYLAMIDES” (Bayer Pharma Aktiengesellschaft, priority 2017, published 2019), which cites them from elsewhere.

SMILES strings stand for the structures.

For data set [1] the following is noted: prior art, Bioorg Med Chem Lett 2010; cited from earlier work.
For data set [2] the following is noted: prior art, Bioorg Med Chem Lett 2010; cited from earlier work. This is another data set of the same source.
For data set [3] the following is noted: prior art, Bioorg Med Chem Lett 2010; cited from earlier work. The source holds these as a separate data set.
The conditions of data set [4]: prior art, Bioorg Med Chem Lett 2010; cited from earlier work. This is another data set of the same source.

For the compound `C[C@@H]1CC[C@H](C)N1C(=O)c1ccc([C@@H](C)NC(=O)C2(NC(=O)c3cc(F)cc(C(F)(F)F)c3)CC2)c(F)c1`, the aqueous solubility result in data set [1] is reported as “reasonable”. For the same compound, the penetration profile result in data set [2] is given as “acceptable”. The human metabolic stability result in data set [3] is on record as “poor”. The “pharmacokinetic profile in rat” value in data set [4] is recorded as “reasonable”.
